Measurements published in the supplement of paper PMC9663587.

Legend:
[1] = compound: T1, CN(C)C(=O)c1cc2cnc(Nc3ccc(N4CCNCC4)cn3)nc2n1C1CCCC1 [LEE011/Ribociclib]; assay: GR value, 72 h; higher = faster growth (1 = untreated, <0 = killing);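 further: breast cancer and non-malignant breast epithelial lines, nine half-log doses, viable cells counted by Hoechst and LIVE/DEAD dye imaging versus time-zero plates and DMSO controls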
[2] = compound: CCc1cnn2c(NCc3ccc[n+]([O-])c3)cc(N3CCCC[C@H]3CCO)nc12; assay: as above
[3] = compound: CCN1CCN(Cc2ccc(Nc3ncc(F)c(-c4cc(F)c5nc(C)n(C(C)C)c5c4)n3)nc2)CC1; assay: as above
[4] = compound: CC(=O)c1c(C)c2cnc(Nc3ccc(N4CCNCC4)cn3)nc2n(C2CCCC2)c1=O; assay: as above
[5] = compound: CC(=O)c1c(C)c2cnc(Nc3ccc(N4CCN(CCOCCOCCOCCNC(=O)COc5cccc6c5C(=O)N(C5CCC(=O)NC5=O)C6=O)CC4)cn3)nc2n(C2CCCC2)c1=O [BSJ-03-123]; assay: as above
[6] = compound: CCOc1cc2ncc(C#N)c(Nc3ccc(OCc4ccccn4)c(Cl)c3)c2cc1NC(=O)/C=C/CN(C)C [Neratinib/HKI272]; assay: as above
[7] = compound: T2, CN1CC[C@H](c2c(O)cc(O)c3c(=O)cc(-c4ccccc4Cl)oc23)[C@H](O)C1 [Flavopiridol]; assay: as above
[8] = compound: CN(C)C/C=C/C(=O)Nc1ccc(C(=O)Nc2cccc(Nc3ncc(Cl)c(-c4c[nH]c5ccccc45)n3)c2)cc1 [THZ1]; assay: as above
[9] = compound: T1, LEE011/Ribociclib; assay: increase in dead-cell fraction, 72 h; higher = more death;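 further: breast cancer cell lines in 384-well plates, stained with Hoechst plus LIVE/DEAD far red dye and imaged, cells above an LDR intensity threshold counted dead, Hoechst-negative corpses included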
[10] = compound: CCN1CCN(Cc2ccc(Nc3ncc(F)c(-c4cc(F)c5nc(C)n(C(C)C)c5c4)n3)nc2)CC1; assay: as above
[11] = compound: CC(=O)c1c(C)c2cnc(Nc3ccc(N4CCNCC4)cn3)nc2n(C2CCCC2)c1=O; assay: as above
[12] = compound: T2, Flavopiridol; assay: as above

Cell Line: HCC1395
- GR value ([1]; 0.001 µM): 0.88 GR
- GR value ([1]; 0.003162 µM): 0.843 GR
- GR value ([1]; 0.01 µM): 0.691 GR
- GR value ([1]; 0.03162 µM): 0.847 GR
- GR value ([1]; 0.1 µM): 0.657 GR
- GR value ([1]; 0.3162 µM): 0.674 GR
- GR value ([1]; 1 µM): 0.569 GR
- GR value ([1]; 3.162 µM): 0.553 GR
- GR value ([1]; 10 µM): 0.415 GR
- GR value ([2]; 0.0001 µM): 1.09 GR
- GR value ([2]; 0.0003162 µM): 1.1 GR
- GR value ([2]; 0.001 µM): 1.05 GR
- GR value ([2]; 0.003162 µM): 1.04 GR
- GR value ([2]; 0.01 µM): 0.649 GR
- GR value ([2]; 0.03162 µM): -0.319 GR
- GR value ([2]; 0.1 µM): -0.482 GR
- GR value ([2]; 0.3162 µM): -0.507 GR
- GR value ([2]; 1 µM): -0.488 GR
- GR value ([3]; 0.001 µM): 0.922 GR
- GR value ([3]; 0.003162 µM): 0.928 GR
- GR value ([3]; 0.01 µM): 0.734 GR
- GR value ([3]; 0.03162 µM): 0.594 GR
- GR value ([3]; 0.1 µM): 0.387 GR
- GR value ([3]; 0.3162 µM): 0.361 GR
- GR value ([3]; 1 µM): 0.283 GR
- GR value ([3]; 3.162 µM): 0.0357 GR
- GR value ([3]; 10 µM): -0.543 GR
- GR value ([4]; 0.0003162 µM): 1.12 GR
- GR value ([4]; 0.001 µM): 1.07 GR
- GR value ([4]; 0.003162 µM): 1.06 GR
- GR value ([4]; 0.01 µM): 0.944 GR
- GR value ([4]; 0.03162 µM): 0.702 GR
- GR value ([4]; 0.1 µM): 0.495 GR
- GR value ([4]; 0.3162 µM): 0.444 GR
- GR value ([4]; 1 µM): 0.386 GR
- GR value ([4]; 3.162 µM): 0.324 GR
- GR value ([5]; 0.001 µM): 0.847 GR
- GR value ([5]; 0.003162 µM): 0.925 GR
- GR value ([5]; 0.01 µM): 0.769 GR
- GR value ([5]; 0.03162 µM): 0.767 GR
- GR value ([5]; 0.1 µM): 0.774 GR
- GR value ([5]; 0.3162 µM): 0.692 GR
- GR value ([5]; 1 µM): 0.572 GR
- GR value ([5]; 3.162 µM): 0.534 GR
- GR value ([5]; 10 µM): -0.188 GR
- GR value ([6]; 0.0003162 µM): 1.05 GR
- GR value ([6]; 0.001 µM): 1.07 GR
- GR value ([6]; 0.003162 µM): 1.14 GR
- GR value ([6]; 0.01 µM): 1 GR
- GR value ([6]; 0.03162 µM): 1.06 GR
- GR value ([6]; 0.1 µM): 0.916 GR
- GR value ([6]; 0.3162 µM): 0.741 GR
- GR value ([6]; 1 µM): 0.521 GR
- GR value ([6]; 3.162 µM): 0.0073 GR
- GR value ([7]; 0.0001 µM): 1.02 GR
- GR value ([7]; 0.0003162 µM): 0.885 GR
- GR value ([7]; 0.001 µM): 0.933 GR
- GR value ([7]; 0.003162 µM): 0.826 GR
- GR value ([7]; 0.01 µM): 0.75 GR
- GR value ([7]; 0.03162 µM): 0.973 GR
- GR value ([7]; 0.1 µM): 0.683 GR
- GR value ([7]; 0.3162 µM): -0.0127 GR
- GR value ([7]; 1 µM): -0.672 GR
- GR value ([8]; 0.0001 µM): 1 GR
- GR value ([8]; 0.0003162 µM): 1.01 GR
- GR value ([8]; 0.001 µM): 0.982 GR
- GR value ([8]; 0.003162 µM): 0.985 GR
- GR value ([8]; 0.01 µM): 1.04 GR
- GR value ([8]; 0.03162 µM): 0.241 GR
- GR value ([8]; 0.1 µM): -0.42 GR
- GR value ([8]; 0.3162 µM): -0.546 GR
- GR value ([8]; 1 µM): -0.795 GR
- increase in dead-cell fraction ([9]; 0.001 µM): -0.0137
- increase in dead-cell fraction ([9]; 0.003162 µM): 0.0153
- increase in dead-cell fraction ([9]; 0.01 µM): 0.0143
- increase in dead-cell fraction ([9]; 0.03162 µM): 0.0111
- increase in dead-cell fraction ([9]; 0.1 µM): 0.0234
- increase in dead-cell fraction ([9]; 0.3162 µM): 0.0259
- increase in dead-cell fraction ([9]; 1 µM): 0.0472
- increase in dead-cell fraction ([9]; 3.162 µM): 0.0158
- increase in dead-cell fraction ([9]; 10 µM): 0.0578
- increase in dead-cell fraction ([10]; 0.001 µM): 0.0055
- increase in dead-cell fraction ([10]; 0.003162 µM): -0.0031
- increase in dead-cell fraction ([10]; 0.01 µM): 0.0123
- increase in dead-cell fraction ([10]; 0.03162 µM): 0.0119
- increase in dead-cell fraction ([10]; 0.1 µM): 0.0163
- increase in dead-cell fraction ([10]; 0.3162 µM): 0.0184
- increase in dead-cell fraction ([10]; 1 µM): 0.0343
- increase in dead-cell fraction ([10]; 3.162 µM): 0.0632
- increase in dead-cell fraction ([10]; 10 µM): 0.447
- increase in dead-cell fraction ([11]; 0.0003162 µM): -0.0002
- increase in dead-cell fraction ([11]; 0.001 µM): -0.0025
- increase in dead-cell fraction ([11]; 0.003162 µM): -0.0071
- increase in dead-cell fraction ([11]; 0.01 µM): 0.0129
- increase in dead-cell fraction ([11]; 0.03162 µM): 0.0232
- increase in dead-cell fraction ([11]; 0.1 µM): 0.0283
- increase in dead-cell fraction ([11]; 0.3162 µM): 0.0367
- increase in dead-cell fraction ([11]; 1 µM): 0.0326
- increase in dead-cell fraction ([11]; 3.162 µM): 0.0325
- increase in dead-cell fraction ([12]; 0.0001 µM): -0.0165
- increase in dead-cell fraction ([12]; 0.0003162 µM): 0.0036
- increase in dead-cell fraction ([12]; 0.001 µM): -0.001
- increase in dead-cell fraction ([12]; 0.003162 µM): 0.0024
- increase in dead-cell fraction ([12]; 0.01 µM): 0.0179
- increase in dead-cell fraction ([12]; 0.03162 µM): -0.0053
- increase in dead-cell fraction ([12]; 0.1 µM): -0.0066
- increase in dead-cell fraction ([12]; 0.3162 µM): 0.0777
- increase in dead-cell fraction ([12]; 1 µM): 0.306
